Patent publication EP0527889B1, “QUINOLIZINONE TYPE COMPOUNDS” (priority 1990, dated 1991)
Counter-ions that a name gives are not always drawn.

Tests used:
[1] = system: Streptococcus pyrogenes 2548 INDUC; test: In vitro antibacterial activity, MIC by agar dilution; type: cell-based; details: BHI agar, 35-37°C, 20-24 hours, unit assumed
In short: (§1)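 Agar dilution; ~10^4 CFU/spot by replicator (1:100 dilution, 1:10 for slow growers); 35–37°C, ~20–24 h. MIC = lowest conc. with no growth (slight haze or sparse colonies allowed) vs drug-free BHI control; ciprofloxacin control.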

Escherichia coli SS = test: as above; type: cell-based; details: BHI agar, 35-37°C, 20-24 hours, unit assumed
In short: as §1

[2] = system: Staphylococcus aureus NCTC 10649; test: as above; type: cell-based; details: BHI agar, 35-37°C, 20-24 hours, unit assumed
In short: as §1

Escherichia coli H560 = test: as above; type: cell-based; details: BHI agar, 35-37°C, 20-24 hours, unit assumed
In short: as §1

[3] = system: Streptococcus bovis A5169; test: as above; type: cell-based; details: BHI agar, 35-37°C, 20-24 hours, unit assumed
In short: as §1

Escherichia coli JUHL [4] = test: as above; type: cell-based; details: BHI agar, 35-37°C, 20-24 hours, unit assumed
In short: as §1

[5] = system: Staphylococcus aureus 1775; test: as above; type: cell-based; details: BHI agar, 35-37°C, 20-24 hours, unit assumed
In short: as §1

[6] = system: Pseudomonas aeruginosa 2862; test: as above; type: cell-based; details: BHI agar, 35-37°C, 20-24 hours, unit assumed
In short: as §1

[7] = system: Micrococcus luteus ATCC 4698; test: as above; type: cell-based; details: BHI agar, 35-37°C, 20-24 hours, unit assumed
In short: as §1

[8] = system: Staphylococcus aureus CMX 553; test: as above; type: cell-based; details: BHI agar, 35-37°C, 20-24 hours, unit assumed
In short: as §1

[9] = system: Staphylococcus epidermidis 3519; test: as above; type: cell-based; details: BHI agar, 35-37°C, 20-24 hours, unit assumed
In short: as §1

[10] = system: Micrococcus luteus ATCC 9341; test: as above; type: cell-based; details: BHI agar, 35-37°C, 20-24 hours, unit assumed
In short: as §1

[11] = system: Staphylococcus aureus ATCC 6538P; test: as above; type: cell-based; details: BHI agar, 35-37°C, 20-24 hours, unit assumed
In short: as §1

[12] = system: Pseudomonas aeruginosa A5007; test: as above; type: cell-based; details: BHI agar, 35-37°C, 20-24 hours, unit assumed
In short: as §1

[13] = system: Streptococcus pyrogenes CONST; test: as above; type: cell-based; details: BHI agar, 35-37°C, 20-24 hours, unit assumed
In short: as §1

[14] = system: Pseudomonas aeruginosa 5263; test: as above; type: cell-based; details: BHI agar, 35-37°C, 20-24 hours, unit assumed
In short: as §1

[15] = system: Enterobacter aerogenes ATCC 13048; test: as above; type: cell-based; details: BHI agar, 35-37°C, 20-24 hours, unit assumed
In short: as §1

Pseudomonas cepacia 296I = test: as above; type: cell-based; details: BHI agar, 35-37°C, 20-24 hours, unit assumed
In short: as §1

[16] = system: Acinetobacter calcoaceticus CMX 669; test: as above; type: cell-based; details: BHI agar, 35-37°C, 20-24 hours, unit assumed
In short: as §1

[17] = system: Streptococcus pyrogenes EES61; test: as above; type: cell-based; details: BHI agar, 35-37°C, 20-24 hours, unit assumed
In short: as §1

[18] = system: Pseudomonas aeruginosa K799/61; test: as above; type: cell-based; details: BHI agar, 35-37°C, 20-24 hours, unit assumed
In short: as §1

Escherichia coli KNK 437 = test: as above; type: cell-based; details: BHI agar, 35-37°C, 20-24 hours, unit assumed
In short: as §1

[19] = system: Staphylococcus aureus A5177; test: as above; type: cell-based; details: BHI agar, 35-37°C, 20-24 hours, unit assumed
In short: as §1

[20] = system: Streptococcus agalactaciae CMX 508; test: as above; type: cell-based; details: BHI agar, 35-37°C, 20-24 hours, unit assumed
In short: as §1

[21] = system: Providencia stuartii CMX 640; test: as above; type: cell-based; details: BHI agar, 35-37°C, 20-24 hours, unit assumed
In short: as §1

[22] = system: Staphylococcus aureus A-5278; test: as above; type: cell-based; details: BHI agar, 35-37°C, 20-24 hours, unit assumed
In short: as §1

Escherichia coli DC-2 = test: as above; type: cell-based; details: BHI agar, 35-37°C, 20-24 hours, unit assumed
In short: as §1

[23] = system: Klebsiella pneumoniae ATCC 8045; test: as above; type: cell-based; details: BHI agar, 35-37°C, 20-24 hours, unit assumed
In short: as §1

[24] = system: Pseudomonas aeruginosa BMH10; test: as above; type: cell-based; details: BHI agar, 35-37°C, 20-24 hours, unit assumed
In short: as §1

[25] = system: Staphylococcus aureus 642A; test: as above; type: cell-based; details: BHI agar, 35-37°C, 20-24 hours, unit assumed
In short: as §1

[26] = system: Enterococcus faecium ATCC 8043; test: as above; type: cell-based; details: BHI agar, 35-37°C, 20-24 hours, unit assumed
In short: as §1

[27] = system: Pseudomonas aeruginosa K799/WT; test: as above; type: cell-based; details: BHI agar, 35-37°C, 20-24 hours, unit assumed
In short: as §1

[28] = system: Staphylococcus aureus NCTC 10649; test: In vivo antibacterial activity in mice (protection from lethal intraperitoneal infection); details: NCTC10649, 144 h, S. aureus, CF-1 female mice infected intraperitoneally with 100 times the LD50, treated at 1 and 5 hr after infection, cumulative mortalities on the sixth day
Description: (§2) The in vivo antibacterial activity of the compounds of the present invention was determined as follows: Aqueous solutions of the test compounds were prepared by dissolving the compound in distilled water, except for the compounds of examples 169 and 170 which were dissolved in a solution of 2% DMSO in distilled water.
(§3) After 18 hr incubation, a culture of Staphylococcus aureus NCTC 10649 was serially diluted by using 10-fold dilutions in 5% (w/v) hog gastric mucin. Cultures (0.5 mL) in a dilution from 10^-1 to 10^-8 were injected intraperitoneally into CF-1 female mice weighing approximately 20g. The LD50 (median lethal dose) for the test organism was calculated from the cumulative mortalities on the sixth day by the using the Reed and Muench procedure (Reed, L.J., and H. Muench, Amer. J. Hygiene, 27, 493 (1938)).
(§4) The above 18 hr culture was diluted in 5% (w/v) hog gastric mucin to obtain 100 times the LD50, and 0.5 mL was injected intraperitoneally into mice. The mice were treated subcutaneously (sc) or orally (po) with a specific amount of the test compound divided equally to be administered at 1 and 5 hr after infection. A group of 10 animals each for at least three dose levels was thus treated, and the deaths were recorded daily for 6 days. Ten mice were left untreated as infection control. ED50 values were calculated from the cumulative mortalities on the sixth day after infection by using the trimmed version of the Logit method ( Hamilton, M.A., R.C. Russo, and R.V. Thurston, Environ. Sci. Technol. 11, 714 (1977)).

Escherichia coli JUHL [29] = test: as above; details: 144 h, E. coli JUHL, mice infected intraperitoneally, treated at 1 and 5 hr after infection, cumulative mortalities on the sixth day
Description: as §2, §3, §4
The LD50 for Escherichia coli JUHL was determined in a manner similar to that above for S. aureus. The 18 hr cultures of this organism were also prepared for po and sc testing in mice, from which ED50 values were calculated. Positive controls were run with temafloxacin as the test compound, for which ED50 values were also calculated.

Structure (SMILES) | MIC values [1] | MIC values (Escherichia coli SS) | MIC values [2] | MIC values (Escherichia coli H560) | MIC values [3] | MIC values (Escherichia coli JUHL [4]) | MIC values [5] | MIC values [6] | MIC values [7] | MIC values [8] | MIC values [9] | MIC values [10] | MIC values [11] | MIC values [12] | MIC values [13] | MIC values [14] | ED50 ([28]; po) | ED50 ([28]; sc) | ED50 (Escherichia coli JUHL [29]; po) | ED50 (Escherichia coli JUHL [29]; sc) | also measured
C[C@H](N)C(=O)N[C@@H](C)C(=O)NC1CCN(c2nc3c(-c4ccc(F)cc4F)cc(C(=O)O)c(=O)n3cc2F)C1 (stereo partly drawn) [Example 168, 2-(3-(N-(S)-Alanyl-(S)-alanyl)aminopyrrolidin-1-yl)-9-(2,4-difluorophenyl)-3-fluoro-6H-6-oxopyrido[1,2-a]pyrimidine-7-carboxylic acid hydrochloride] | 1.56 µg/mL | 0.05 µg/mL | 0.78 µg/mL | 0.78 µg/mL | 12.5 µg/mL | 0.78 µg/mL | > 100 µg/mL | > 100 µg/mL | 50 µg/mL | 6.2 µg/mL | 3.1 µg/mL | 50 µg/mL | 0.78 µg/mL | 12.5 µg/mL | 3.1 µg/mL | > 100 µg/mL | 3 mg/kg | 2.8 mg/kg | 14.3 mg/kg | < 2.5 mg/kg | MIC values [15]: 3.1 µg/mL; MIC values (Pseudomonas cepacia 296I): > 100 µg/mL; MIC values [16]: 12.5 µg/mL; MIC values [17]: 6.2 µg/mL; MIC values [18]: 1.56 µg/mL; MIC values (Escherichia coli KNK 437): 12.5 µg/mL; MIC values [19]: 3.1 µg/mL; MIC values [20]: 6.2 µg/mL; MIC values [21]: 100 µg/mL; MIC values [22]: 3.1 µg/mL; MIC values (Escherichia coli DC-2): 25 µg/mL; MIC values [23]: 3.1 µg/mL; MIC values [24]: 3.1 µg/mL; MIC values [25]: 3.1 µg/mL; MIC values [26]: 12.5 µg/mL; MIC values [27]: 6.2 µg/mL
C[C@H]1C[C@H](N)CN1c1nc2c(-c3ccc(F)cc3F)cc(C(=O)O)c(=O)n2cc1F [Example 171, 2-((2S,4S)-4-Amino-2-methylpyrrolidin-1-yl)-9-(2,4-difluorophenyl)-3-fluoro-6H-6-oxopyrido[1,2-a]pyrimidine-7-carboxylic acid hydrochloride] | 0.39 µg/mL | 0.001 µg/mL | 0.1 µg/mL | 0.02 µg/mL | 1.56 µg/mL | 0.02 µg/mL | 50 µg/mL | 50 µg/mL | 0.78 µg/mL | 0.2 µg/mL | 0.2 µg/mL | 3.1 µg/mL | 0.1 µg/mL | 0.39 µg/mL | 0.78 µg/mL | 50 µg/mL | 12.8 mg/kg | > 8 mg/kg | > 20 mg/kg | 4.8 mg/kg | MIC values [15]: 0.1 µg/mL; MIC values (Pseudomonas cepacia 296I): 6.2 µg/mL; MIC values [16]: 0.05 µg/mL; MIC values [17]: 0.78 µg/mL; MIC values [18]: 0.05 µg/mL; MIC values (Escherichia coli KNK 437): 0.39 µg/mL; MIC values [19]: 0.1 µg/mL; MIC values [20]: 0.78 µg/mL; MIC values [21]: 6.2 µg/mL; MIC values [22]: 0.1 µg/mL; MIC values (Escherichia coli DC-2): 0.78 µg/mL; MIC values [23]: 0.01 µg/mL; MIC values [24]: 0.2 µg/mL; MIC values [25]: 0.2 µg/mL; MIC values [26]: 0.78 µg/mL; MIC values [27]: 0.39 µg/mL
CC1CN(c2cc3c(cc2F)c(=O)c(C(=O)O)cn3-c2ccc(F)cc2F)CCN1 (stereo not shown) [temafloxacin, reference compound] |  |  |  |  |  |  |  |  |  |  |  |  |  |  |  |  | 1.5 mg/kg | 1.3 mg/kg | 1.5 mg/kg | 0.5 mg/kg | 
